Patent publication US9840478B2 (MERCK SHARP & DOHME CORP., priority 2013, dated 2017)
Like-named read-outs stand apart in the source and are kept apart here.

Test system: HIV-1 (H9IIIB strain)
Assay: Cell-based HIV infection assay using a reporter (Cell-Based), MT4-GFP cells
Conditions: 50% normal human serum, mean of at least two independent experiments, read-out: Cell-based IP
How it was run: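 IC50 from 4-parameter dose-response of % viral growth inhibition, using the 48 h/24 h infected-cell ratio scaled between DMSO and a protease/integrase/NNRTI triple-drug control. Assay used MT4 cells with HIV-LTR-GFP reporter, pre-infected 24 h with HIV-1 H9IIIB, in 50% normal human serum.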

[1] = Human immunodeficiency virus 1, MT4-GFP cells infected with HIV-1 H9IIIB

Compound	IC50 [1] [nM]	IC50 (MT4-GFP cells infected with HIV-1 H9IIIB) [nM]
CC[C@@H]1CNC[C@H](CCc2c(F)cccc2NC(=O)[C@@H](N)[C@@H](c2ccc(Cl)cc2)C2CCOCC2)N1S(C)(=O)=O [Example 265, (βR)-4-chloro-N-(2-{2-[(2S,6R)-6-ethyl-1-(methylsulfonyl)piperazin-2-yl]ethyl}-3-fluorophenyl)-β-(tetrahydro-2H-pyran-4-yl)-L-phenylalaninamide]	260	
COC(=O)N[C@H](C(=O)Nc1cccc(F)c1CC[C@H]1CNC[C@H](C)N1S(=O)(=O)c1ccccc1)[C@@H](c1ccc(Cl)cc1)c1cccc(F)c1 [Example 185, (βS)-4-chloro-N-(3-fluoro-2-{2-[(2S,6S)-6-methyl-1-(phenylsulfonyl)piperazin-2-yl]ethyl}phenyl)-β-(3-fluorophenyl)-Nα-(methoxycarbonyl)-L-phenylalaninamide]	28	
CCCS(=O)(=O)N1CCNC[C@@H]1CCc1c(F)cncc1NC(=O)C[C@@H](c1ccc(F)cc1)c1cc(F)cc(F)c1 [Example 317, (3S)-3-(3,5-difluorophenyl)-3-(4-fluorophenyl)-N-(5-fluoro-4-{2-[(2S)-1-(propylsulfonyl)piperazin-2-yl]ethyl}pyridin-3-yl)propanamide]	24	
O=C(C[C@@H](c1ccc(F)cc1)c1cc(F)cc(F)c1)Nc1cncc(F)c1CC[C@H]1CNCCN1S(=O)(=O)N1CCc2ccccc2C1 [Example 322, (3S)-3-(3,5-difluorophenyl)-N-(4-{2-[(2S)-1-(3,4-dihydroisoquinolin-2(1H)-ylsulfonyl)piperazin-2-yl]ethyl}-5-fluoropyridin-3-yl)-3-(4-fluorophenyl)propanamide]	530	
COC(=O)N[C@H](C(=O)Nc1cccc(F)c1CC[C@H]1CNC[C@@H](C)N1S(=O)(=O)C1CC1)[C@@H](c1ccc(Cl)cc1)C(C)C [Example 145, (βR)-4-chloro-N-(2-{2-[(2S,6R)-1-(cyclopropylsulfonyl)-6-methylpiperazin-2-yl]ethyl}-3-fluorophenyl)-Nα-(methoxycarbonyl)-β-(1-methylethyl)-L-phenylalaninamide]	170	
C[C@@H]1C[C@H]([C@H](c2ccc(F)cc2)[C@H](N)C(=O)Nc2cccc(F)c2CC[C@H]2CNC[C@@H](C)N2S(=O)(=O)c2ccccc2)C[C@H](C)O1 [Example 370, (2S,3R)-2-amino-3-((2R,4r,6S)-2,6-dimethyltetrahydro-2H-pyran-4-yl)-N-(3-fluoro-2-(2-((2S,6R)-6-methyl-1-(phenylsulfonyl)piperazin-2-yl)ethyl)phenyl)-3-(4-fluorophenyl)propanamide]	7.5	
methyl ((S)-1-((2R,4r,6S)-4- (4-chlorophenyl)-2,6- dimethyltetrahydro-2H- pyran-4-yl)-2-((3-fluoro-2-(2- ((2S,6S)-6-methyl-1- (phenylsulfonyl)piperazin-2- yl)ethyl)phenyl)amino)-2- oxoethyl)carbamate [Example 299]		16
C[C@H]1CNC[C@H](CCc2c(F)cccc2NC(=O)[C@@H](N)[C@@H](c2ccc(F)cc2)c2cc(F)cc(F)c2)N1S(=O)(=O)c1cccc(F)c1 [Example 106, (βS)-β-(3,5-difluorophenyl)-4-fluoro-N-[3-fluoro-2-(2-{(2S,6S)-1-[(3-fluorophenyl)sulfonyl]-6-methylpiperazin-2-yl}ethyl)phenyl]-L-phenylalaninamide]	30	
COC(=O)N[C@H](C(=O)Nc1cccc(F)c1CC[C@H]1CNC[C@H](C)N1S(=O)(=O)C1CC1)[C@@H](c1ccc(Cl)cc1)c1ccc(OC)nc1 [Example 151, (βS)-4-chloro-N-(2-{2-[(2S,6S)-1-(cyclopropylsulfonyl)-6-methylpiperazin-2-yl]ethyl}-3-fluorophenyl)-Nα-(methoxycarbonyl)-β-(6-methoxypyridin-3-yl)-L-phenylalaninamide]	17	
COC(=O)N[C@H](C(=O)Nc1cccc(F)c1CC[C@H]1CNC[C@H](C)N1S(=O)(=O)c1ccccc1)[C@H](c1cncc(F)c1)c1cccc(Cl)c1 [Example 253, (βS)-3-chloro-N-(3-fluoro-2-{2-[(2S,6S)-6-methyl-1-(phenylsulfonyl)piperazin-2-yl]ethyl}phenyl)-β-(5-fluoropyridin-3-yl)-Nα-(methoxycarbonyl)-L-phenylalaninamide]	24	
C[C@@H]1CNC[C@H](CCc2c(F)cccc2NC(=O)[C@@H](N)[C@@H](c2ccc(Cl)cc2)C2CCOCC2)N1S(=O)(=O)c1ccccc1 [Example 116, (βR)-4-chloro-N-(3-fluoro-2-{2-[(2S,6R)-6-methyl-1-(phenylsulfonyl)piperazin-2-yl]ethyl}phenyl)-β-(tetrahydro-2H-pyran-4-yl)-L-phenylalaninamide]	24	
COC(=O)N[C@H](C(=O)NC1CCCC1CC[C@H]1CNCCN1S(=O)(=O)c1ccccc1)C(c1ccc(Cl)cc1)C1CCOCC1 (stereo partly drawn) [Example 356, methyl ((1R,2S)-1-(4-chlorophenyl)-3-oxo-3-((2-(2-((S)-1-(phenylsulfonyl)piperazin-2-yl)ethyl)cyclopentyl)amino)-1-(tetrahydro-2H-pyran-4-yl)propan-2-yl)carbamate]	28	
C[C@H]1CNC[C@H](CCc2c(F)cccc2NC(=O)[C@@H](N)[C@@H](c2ccc(F)cc2)C2CCOCC2)N1S(=O)(=O)c1ccccc1 [Example 102, (βR)-4-fluoro-N-(3-fluoro-2-{2-[(2S,6S)-6-methyl-1-(phenylsulfonyl)piperazin-2-yl]ethyl}phenyl)-β-(tetrahydro-2H-pyran-4-yl)-L-phenylalaninamide]	19	
COC(=O)N[C@H](C(=O)Nc1cncc(F)c1CC[C@H]1CNC[C@H](C)N1S(=O)(=O)c1ccccc1Cl)[C@@H](c1ccc(F)cc1)c1cc(F)cc(F)c1 [Example 272, (βS)-N-[4-(2-{(2S,6S)-1-[(2-chlorophenyl)sulfonyl]-6-methylpiperazin-2-yl}ethyl)-5-fluoropyridin-3-yl]-β-(3,5-difluorophenyl)-4-fluoro-Nα-(methoxycarbonyl)-L-phenylalaninamide]	49	
COC(=O)N[C@H](C(=O)Nc1cccc(F)c1CC[C@H]1CNC[C@H](C)N1S(=O)(=O)c1ccc(OC)cc1)C(c1cccc(F)c1)c1cccc(F)c1 [Example 157, 3-fluoro-N-[3-fluoro-2-(2-{(2S,6S)-1-[(4-methoxyphenyl)sulfonyl]-6-methylpiperazin-2-yl}ethyl)phenyl]-β-(3-fluorophenyl)-Nα-(methoxycarbonyl)-L-phenylalaninamide]	7.3	
CC[C@H]1CNC[C@H](CCc2c(F)cccc2NC(=O)[C@@H](NC(=O)OC)[C@@H](c2ccc(Cl)cc2)C2CCOCC2)N1S(C)(=O)=O [Example 225, (βR)-4-chloro-N-(2-{2-[(2S,6S)-6-ethyl-1-(methylsulfonyl)piperazin-2-yl]ethyl}-3-fluorophenyl)-Nα-(methoxycarbonyl)-β-(tetrahydro-2H-pyran-4-yl)-L-phenylalaninamide]	23	
CC(C)[C@H](c1cccc(Cl)c1)[C@H](N)C(=O)Nc1cccc(F)c1CC[C@H]1CNC[C@H](C)N1S(=O)(=O)C1CC1 [Example 215, (βR)-3-chloro-N-(2-{2-[(2S,6S)-1-(cyclopropylsulfonyl)-6-methylpiperazin-2-yl]ethyl}-3-fluorophenyl)-β-(1-methylethyl)-L-phenylalaninamide]	2500	
COC(=O)N[C@H](C(=O)Nc1cccc(F)c1CC[C@H]1CNCCN1S(=O)(=O)c1ccccc1)[C@@H](c1ccc(Cl)cc1)c1cc(F)cc(F)c1 [Example 59, (βS)-4-chloro-β-(3,5-difluorophenyl)-N-(3-fluoro-2-{2-[(2S)-1-(phenylsulfonyl)piperazin-2-yl]ethyl}phenyl)-Nα-(methoxycarbonyl)-L-phenylalaninamide]	29	
O=C(C[C@@H](c1ccc(F)cc1)c1cc(F)cc(F)c1)Nc1cncc(F)c1CC[C@H]1CNCCN1S(=O)(=O)N1CCC(F)CC1 [Example 331, (3S)-3-(3,5-difluorophenyl)-N-[5-fluoro-4-(2-{(2S)-1-[(4-fluoropiperidin-1-yl)sulfonyl]piperazin-2-yl}ethyl)pyridin-3-yl]-3-(4-fluorophenyl)propanamide]	19	
COC(=O)NC(C(=O)NC1CC(O)CC1CC[C@H]1CNCCN1S(=O)(=O)c1ccccc1)C(c1ccc(F)cc1)c1ccc(F)cc1 (stereo partly drawn) [Example 357, Methyl ((2R)-1,1-bis(4-fluorophenyl)-3-((4-hydroxy-2-(2-((S)-1-(phenylsulfonyl)piperazin-2-yl)ethyl)cyclopentyl)amino)-3-oxopropan-2-yl)carbamate]	820	
C[C@@H]1C[C@](c2ccc(Cl)cc2)([C@H](N)C(=O)Nc2cccc(F)c2CC[C@H]2CNC[C@@H](C)N2S(=O)(=O)c2ccccc2)C[C@H](C)O1 [Example 301, (S)-2-amino-2-((2R,4r,6S)-4-(4-chlorophenyl)-2,6-dimethytetrahydro-2H-pyran-4-yl)-N-(3-fluoro-2-(2-((2S,6R)-6-methyl-1-(phenylsulfonyl)piperazin-2-yl)ethyl)phenyl)acetamide]	480	
C[C@H]1CNC[C@H](CCc2c(F)cccc2NC(=O)[C@@H](N)[C@@H](c2cc(F)cc(F)c2)C2CCOCC2)N1S(=O)(=O)c1ccccc1 [Example 294, (βR)-3,5-difluoro-N-(3-fluoro-2-{2-[(2S,6S)-6-methyl-1-(phenylsulfonyl)piperazin-2-yl]ethyl}phenyl)-β-(tetrahydro-2H-pyran-4-yl)-L-phenylalaninamide]	40	
C[C@@H]1CNC[C@H](CCc2c(F)cncc2NC(=O)[C@@H](N)[C@@H](c2ccc(Cl)cc2)C2CCOCC2)N1S(C)(=O)=O [Example 182, (βR)-4-chloro-N-(5-fluoro-4-{2-[(2S,6R)-6-methyl-1-(methylsulfonyl)piperazin-2-yl]ethyl}pyridin-3-yl)-β-(tetrahydro-2H-pyran-4-yl)-L-phenylalaninamide]	130	
